# Results from US20250101011A1, “PEPTIDYL NITRILE COMPOUND AND USE THEREOF” (SHANGHAI YIDIAN PHARMACEUTICAL TECHNOLOGY DEVELOPMENT CO., …, priority 2022, published 2025).
# Biological target: DPP1 (Homo sapiens (Human), UniProt P53634)
# Experiment: DPP1 activity inhibition test on U937 cells
# Assay type: cell-based
# Conditions: substrate h-Gly-phe-AFC; for inhibition at 0.005 µM: U-937, 5 nM compound; for inhibition at 0.05 µM: U-937, 50 nM compound; for IC50: intracellular enzyme activity
# Description: After incubation at 37° C. for 1 h, add h-Gly-phe-AFC (10 μL) to each well and start reaction.
# Chain of DPP1 (P53634 25-463): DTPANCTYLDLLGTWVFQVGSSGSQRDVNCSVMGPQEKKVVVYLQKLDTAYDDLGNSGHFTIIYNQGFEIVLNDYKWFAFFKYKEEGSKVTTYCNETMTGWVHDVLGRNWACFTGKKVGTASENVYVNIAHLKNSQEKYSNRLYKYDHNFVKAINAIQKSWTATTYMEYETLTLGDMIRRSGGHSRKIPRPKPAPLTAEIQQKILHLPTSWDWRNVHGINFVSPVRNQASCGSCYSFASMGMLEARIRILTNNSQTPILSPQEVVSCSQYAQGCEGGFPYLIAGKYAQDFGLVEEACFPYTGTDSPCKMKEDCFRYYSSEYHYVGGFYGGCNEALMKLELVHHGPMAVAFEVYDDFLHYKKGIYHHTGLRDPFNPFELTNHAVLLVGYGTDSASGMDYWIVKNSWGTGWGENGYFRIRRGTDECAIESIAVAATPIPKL
Structure (SMILES),inhibition at 0.005 µM,inhibition at 0.05 µM,IC50,Average Inhibition % @5 nM (5 nM compound),Average Inhibition % @50 nM (50 nM compound)
N#C[C@H](Cc1ccc(-c2ccc3nccn3c2)cc1)NC(=O)[C@@H]1CNCCCO1 [Compound D01],–,–,–,− (“−”: inhibition % < 30%),− (“−”: inhibition % < 30%)
CN1CCC2(CC1)OC(=O)c1ccc(-c3ccc(C[C@@H](C#N)NC(=O)[C@@H]4CNCCCO4)cc3)cc12 [Compound D25],30 to 75%,75 to 100%,–,–,–
CN1CCC2(CC1)OCc1ccc(-c3ccc(C[C@@H](C#N)NC(=O)[C@@H]4CNCCCO4)cc3)cc12 [Compound D27],< 30%,30 to 75%,–,–,–
N#C[C@H](Cc1ccc(-c2ccc3c(n2)C2(CCN(C4COC4)CC2)OC3=O)cc1)NC(=O)[C@@H]1CNCCCO1 [Compound D28],30 to 75%,75 to 100%,–,–,–
CN1CCC2(CC1)OC(=O)c1ccc(-c3ccc(C[C@@H](C#N)NC(=O)[C@@H]4CNCCCO4)cc3)nc12 [Compound D29],30 to 75%,75 to 100%,–,–,–
N#C[C@H](Cc1ccc(-c2ccc3c(n2)C2(CCN(C4COC4)CC2)OC3)cc1)NC(=O)[C@@H]1CNCCCO1 [Compound D30],< 30%,30 to 75%,–,–,–
CN1CCC2(CC1)OCc1ccc(-c3ccc(C[C@@H](C#N)NC(=O)[C@@H]4CNCCCO4)cc3)nc12 [Compound D31],< 30%,30 to 75%,–,–,–
CN1CCC2(CC1)OC(=O)c1cnc(-c3ccc(C[C@@H](C#N)NC(=O)[C@@H]4CNCCCO4)cc3)cc12 [Compound D38],< 30%,30 to 75%,–,–,–
CN1CCC2(CC1)OCc1cnc(-c3ccc(C[C@@H](C#N)NC(=O)[C@@H]4CNCCCO4)cc3)cc12 [Compound D39],< 30%,30 to 75%,–,–,–
Cn1c(=O)oc2ccc(-c3ccc(C[C@@H](C#N)NC(=O)[C@@H]4CNCC5(CC5)CO4)nc3)cc21 [Compound D47],< 30%,75 to 100%,–,–,–
Cn1c(=O)oc2ccc(-c3ccc(C[C@@H](C#N)NC(=O)[C@@H]4CNCC5(CC5)CO4)nn3)cc21 [Compound D48],30 to 75%,75 to 100%,0.012 µM,–,–
Cn1c(=O)oc2ccc(-c3ccc(C[C@@H](C#N)NC(=O)[C@@H]4CNCc5ccccc5O4)cc3)cc21 [Compound D49],< 30%,30 to 75%,–,–,–
Cn1c(=O)oc2ccc(-c3ccc(C[C@@H](C#N)NC(=O)[C@@H]4CNCC(C)(C)CO4)cc3)cc21 [Compound D50],–,–,> 1 µM,–,–
Cn1c(=O)oc2ccc(-c3ccc(C[C@@H](C#N)NC(=O)[C@@H]4CNCC(F)(F)CO4)cc3)cc21 [Compound D51],–,–,> 1 µM,–,–
Cn1c(=O)oc2ccc(-c3ccc(C[C@@H](C#N)NC(=O)[C@@H]4COCC[C@@H]4N)cc3)cc21 [Compound D52],< 30%,30 to 75%,–,–,–
Cn1c(=O)oc2ccc(-c3ccc(C[C@@H](C#N)NC(=O)[C@@H]4CNCCCO4)s3)cc21 [Compound D53],–,–,0.016 µM,–,–
Cn1c(=O)oc2ccc(-c3ccc(C[C@@H](C#N)NC(=O)[C@@H]4CNC[C@H](F)CO4)cc3)cc21 [Compound D54],30 to 75%,30 to 75%,–,–,–
Cn1c(=O)oc2ccc(-c3ccc(C[C@@H](C#N)NC(=O)[C@@H]4CNC[C@@H](F)CO4)c(F)c3)cc21 [Compound D55],–,–,0.0064 µM,–,–
N#C[C@H](Cc1ccc(-c2ccc3c(c2)C2(CN(C4COC4)C2)OC3=O)cc1F)NC(=O)[C@@H]1CNCCCO1 [Compound D56],< 30%,30 to 75%,–,–,–
Cn1cnc(-n2c(=O)oc3ccc(-c4ccc(C[C@@H](C#N)NC(=O)[C@@H]5CNCCCO5)c(F)c4)cc32)c1 [Compound D62],< 30%,30 to 75%,–,–,–
Cn1cnc(-n2c(=O)oc3ccc(-c4ccc(C[C@@H](C#N)NC(=O)[C@@H]5CNCCCO5)c(F)c4)cc32)n1 [Compound D64],< 30%,< 30%,–,–,–
CO/N=C1\CCc2cc(-c3ccc(C[C@@H](C#N)NC(=O)[C@@H]4CNCCCO4)c(F)c3)ccc21 [Compound D65],–,30 to 75%,–,–,–
Cn1c(=O)oc2ncc(-c3ccc(C[C@@H](C#N)NC(=O)[C@@H]4CNCCCO4)c(F)c3)nc21 [Compound D66],< 30%,< 30%,–,–,–
N#C[C@H](Cc1ccc(-c2ccc3oc(=O)n(C4CC(=O)C4)c3c2)cc1F)NC(=O)[C@@H]1CNCCCO1 [Compound D68],< 30%,< 30%,–,–,–
N#C[C@H](Cc1ccc(-c2ccc3oc(=O)n(C4CC(O)C4)c3c2)cc1F)NC(=O)[C@@H]1CNCCCO1 (stereo partly shown) [Compound D69],< 30%,< 30%,–,–,–
N#C[C@H](Cc1ccc(-c2ccc3oc(=O)n(C4CS(=O)(=O)C4)c3c2)cc1F)NC(=O)[C@@H]1CNCCCO1 [Compound D71],< 30%,< 30%,–,–,–
N#C[C@H](Cc1ccc(-c2ccc3c(c2)C2(CS(=O)(=O)C2)OC3=O)cc1F)NC(=O)[C@@H]1CNCCCO1 [Compound D72],< 30%,< 30%,–,–,–
CN(C)CC1OC(=O)c2ccc(-c3ccc(C[C@@H](C#N)NC(=O)[C@@H]4CNCCCO4)c(F)c3)cc21 (stereo partly shown) [Compound D76],< 30%,75 to 100%,–,–,–

# Second part, led by results:
inhibition at 0.005 µM,inhibition at 0.05 µM,IC50,Structure (SMILES),Average Inhibition % @5 nM (5 nM compound),Average Inhibition % @50 nM (50 nM compound)
30 to 75%,75 to 100%,–,"Cn1c(=O)oc2ccc(-c3ccc(C[C@@H](C#N)NC(=O)[C@@H]4CNCCCO4)cc3)cc21 [AZD7986, Brensocatib, reference compound]",–,–
< 30%,30 to 75%,–,N#C[C@H](Cc1ccc(-c2ccc3oc(=O)n(C4COC4)c3c2)cc1)NC(=O)[C@@H]1CNCCCO1 [Compound D03],–,–
< 30%,< 30%,–,N#C[C@H](Cc1ccc(-c2ccc3nncn3c2)cc1)NC(=O)[C@@H]1CNCCCO1 [Compound D05],–,–
< 30%,< 30%,–,N#C[C@H](Cc1ccc(-c2ccc3nnnn3c2)cc1)NC(=O)[C@@H]1CNCCCO1 [Compound D06],–,–
< 30%,30 to 75%,–,N#C[C@H](Cc1ccc(-c2ccc3c(c2)OC(F)(F)O3)cc1)NC(=O)[C@@H]1CNCCCO1 [Compound D07],–,–
< 30%,30 to 75%,–,N#C[C@H](Cc1ccc(-c2ccc3c(c2)CC(=O)C3)cc1)NC(=O)[C@@H]1CNCCCO1 [Compound D08],–,–
< 30%,30 to 75%,–,N#C[C@H](Cc1ccc(-c2ccc3c(c2)C(=O)CO3)cc1)NC(=O)[C@@H]1CNCCCO1 [Compound D10],–,–
< 30%,< 30%,–,CN1Cc2cc(-c3ccc(C[C@@H](C#N)NC(=O)[C@@H]4CNCCCO4)cc3)sc2C1=O [Compound D12],–,–
< 30%,< 30%,–,N#C[C@H](Cc1ccc(-c2cc3c(s2)CNC3=O)cc1)NC(=O)[C@@H]1CNCCCO1 [Compound D13],–,–
< 30%,30 to 75%,–,CN1Cc2sc(-c3ccc(C[C@@H](C#N)NC(=O)[C@@H]4CNCCCO4)cc3)cc2C1=O [Compound D14],–,–
< 30%,30 to 75%,–,CN1CCN(S(=O)(=O)c2ccc(-c3ccc(C[C@@H](C#N)NC(=O)[C@@H]4CNCCCO4)cc3)cc2)CC1 [Compound D16],–,–
< 30%,30 to 75%,–,Cn1c(=O)oc2cc(-c3ccc(C[C@@H](C#N)NC(=O)[C@@H]4CNCCCO4)cc3)ccc21 [Compound D17],–,–
< 30%,30 to 75%,–,CN1CCc2nc(-c3ccc(C[C@@H](C#N)NC(=O)[C@@H]4CNCCCO4)cc3)sc2C1 [Compound D18],–,–
30 to 75%,75 to 100%,–,N#C[C@H](Cc1ccc(-c2ccc3c(c2)C2(COC2)OC3)cc1)NC(=O)[C@@H]1CNCCCO1 [Compound D22],–,–
< 30%,< 30%,–,CNS(=O)(=O)c1ccc(-c2ccc(C[C@@H](C#N)NC(=O)[C@@H]3CNCCCO3)cc2)cc1 [Compound D23],–,–
30 to 75%,75 to 100%,–,CN1CC(n2c(=O)oc3ccc(-c4ccc(C[C@@H](C#N)NC(=O)[C@@H]5CNCCCO5)cc4)cc32)C1 [Compound D24],–,–
< 30%,30 to 75%,–,C[C@H](O)Cn1c(=O)oc2ccc(-c3ccc(C[C@@H](C#N)NC(=O)[C@@H]4CNCCCO4)cc3)cc21 [Compound D32],–,–
< 30%,30 to 75%,–,CO[C@@H](C)Cn1c(=O)oc2ccc(-c3ccc(C[C@@H](C#N)NC(=O)[C@@H]4CNCCCO4)cc3)cc21 [Compound D33],–,–
< 30%,30 to 75%,–,C[C@@H](O)Cn1c(=O)oc2ccc(-c3ccc(C[C@@H](C#N)NC(=O)[C@@H]4CNCCCO4)cc3)cc21 [Compound D34],–,–
< 30%,30 to 75%,–,CO[C@H](C)Cn1c(=O)oc2ccc(-c3ccc(C[C@@H](C#N)NC(=O)[C@@H]4CNCCCO4)cc3)cc21 [Compound D35],–,–
< 30%,30 to 75%,–,CN1CCC2(C1)OCc1ccc(-c3ccc(C[C@@H](C#N)NC(=O)[C@@H]4CNCCCO4)cc3)cc12 (stereo partly shown) [Compound D36],–,–
< 30%,30 to 75%,–,CN1CCC2(C1)OC(=O)c1ccc(-c3ccc(C[C@@H](C#N)NC(=O)[C@@H]4CNCCCO4)cc3)cc12 (stereo partly shown) [Compound D37],–,–
30 to 75%,75 to 100%,0.015 µM,CC1(C)OC(=O)c2ccc(-c3ccc(C[C@@H](C#N)NC(=O)[C@@H]4CNCCCO4)cc3)cc21 [Compound D42],–,–
< 30%,30 to 75%,–,N#C[C@H](Cc1ccc(-c2ccc3c(c2)C(=O)CC3)cc1)NC(=O)[C@@H]1CNCCCO1 [Compound D43],–,–
< 30%,30 to 75%,–,N#C[C@H](Cc1ccc(-c2ccc3c(c2)C(=O)OC3)cc1)NC(=O)[C@@H]1CNCCCO1 [Compound D45],–,–
